Structures can show the parent of a compound that is named as a salt. Where two headings read alike, the source gives them in different places.
What was measured:
[1] = tested on: SARS-CoV-2 (hCoV-19/Taiwan/4/2020); assay: microbe, parasite or virus in culture; assay type: cell-based; details: for block of viral infection in the cell-based assay (α-glucosidase inhibitors): tested conc. 100 μM (Fig. S4)
[2] = target: Papain-like protease (nsp3) of SARS-CoV-2 (Severe acute respiratory syndrome coronavirus 2, UniProt P0DTD1); assay: biochemical; assay type: biochemical; details: 100 uM; FRET-based enzymatic assay, 3 independent experiments; N.I. = no inhibition
SARS-CoV-2 = assay: Quantification of SARS-CoV-2 via antibody staining (viral NP protein) in Vero E6 cells; assay type: cell-based; details: viral titer by antinucleocapsid antibody
in vitro = details: African green monkey, CC50 (μM)
[3] = Vero E6, concentrations used in the screen (10, 3.3 and 1 μM)
[4] = 100 PFU of SARS-CoV-2 (multiplicity of infection 0.025) in Vero E6 cells
[5] = Severe acute respiratory syndrome coronavirus 2, Vero C1008, 100 PFU of SARS-CoV-2 (multiplicity of infection 0.025) in Vero E6 cells
[6] = Severe acute respiratory syndrome coronavirus 2, Vero C1008, minimal dose that showed antiinfective effect after virus challenge, incubation 72 h (D3), Vero E6, read-out: CPE (μM) D3

For CC[C@H](CC[C@@H](C)[C@H]1CC[C@H]2[C@@H]3CC=C4C[C@@H](O[C@@H]5O[C@H](CO)[C@@H](O)[C@H](O)[C@H]5O)CC[C@]4(C)[C@H]3CC[C@]12C)C(C)C [daucosterol], the “block of viral infection in the cell-based assay (α-glucosidase inhibitors)” value (shortened to “block … (α-glucosidase inhibitors)”) ([1]; Vero E6) was “none was able to efficiently block the viral infection”.

With CC(C)CN(C[C@@H](O)[C@H](Cc1ccccc1)NC(=O)O[C@H]1CCOC1)S(=O)(=O)c1ccc(N)cc1 [amprenavir] the “inhibition against SARS-CoV-2 in the cell-based screen” value (from here on “inhibition … in the cell-based screen”) [1, 3] was “none of these showed inhibition”.

With CC(C)(C)NC(=O)[C@@H]1C[C@@H]2CCCC[C@@H]2CN1C[C@@H](O)[C@H](Cc1ccccc1)NC(=O)[C@H](CC(N)=O)NC(=O)c1ccc2ccccc2n1 [saquinavir mesylate] the “inhibition … in the cell-based screen” value [1, 3] was “none of these showed inhibition”.

In the case of CC(C)(C)C(=O)OCOP(=O)(COCCn1cnc2c(N)ncnc21)OCOC(=O)C(C)(C)C [adefovir dipivoxyl], the “inhibition … in the cell-based screen” value [1, 3] is reported as “no active compound was identified”.

In the case of O=C1Nc2ccc(Cl)cc2[C@@](C#CC2CC2)(C(F)(F)F)O1 [efavirenz], the “inhibition … in the cell-based screen” value [1, 3] is reported as “no active compound was identified”.

For Cc1cn([C@@H]2C[C@@H](O)[C@H](CO)O2)c(=O)[nH]c1=O [telbivudine], the “inhibition … in the cell-based screen” value [1, 3] was “no active compound was identified”.

For CC(C)(C)OC(=O)N[C@H]1CCCCC/C=C\[C@@H]2C[C@@]2(C(=O)NS(=O)(=O)C2CC2)NC(=O)[C@@H]2C[C@@H](OC(=O)N3Cc4cccc(F)c4C3)CN2C1=O [danoprevir], the “inhibition … in the cell-based screen” value [1, 3] was “none of these showed inhibition”.

In the case of Nc1nc(NC2CC2)c2ncn([C@H]3C=C[C@@H](CO)C3)c2n1 [abacavir sulfate], the “inhibition … in the cell-based screen” value [1, 3] is reported as “no active compound was identified”.

For CC1=C(C(=O)OC(C)C)C(c2cccc([N+](=O)[O-])c2)C(C(=O)OC2CN(C(c3ccccc3)c3ccccc3)C2)=C(N)N1 (stereo not shown) [Azelnidipine 10, Azelnidipine], the “Inhibition % at 100 uM of compounds, Papain-like protease (nsp3)” value [2] was “N.I”, the IC50 (SARS-CoV-2; [4]) was 5.3 µM and the IC50 (SARS-CoV-2; [5]) was 5.29 µM. For the same compound, the CC50 at 24 h (in vitro) was 12.9 µM, the minimal effective concentration [1, 6] was 5 µM and the “CPE (μM) D5” value ([1]; minimal dose that showed antiinfective effect after virus challenge, incubation 120 h (D5), Vero E6, N.I. = no inhibition, dash = cytotoxicity was observed) was “N.I”.

For CN1C[C@H](O)[C@@H](O)[C@H](O)[C@H]1CO [N-methyl-1-deoxynojirimycin], the “block … (α-glucosidase inhibitors)” value ([1]; Vero E6) was “none was able to efficiently block the viral infection”.

With CC(C)OC(=O)OCOP(=O)(CO[C@H](C)Cn1cnc2c(N)ncnc21)OCOC(=O)OC(C)C [tenofovir disoproxil fumarate] the “inhibition … in the cell-based screen” value [1, 3] was “no active compound was identified”.

With CC(=O)OCC(CCn1cnc2cnc(N)nc21)COC(C)=O [famciclovir] the “inhibition … in the cell-based screen” value [1, 3] was “no active compound was identified”.

For COC(=O)N[C@H](C(=O)N[C@@H](Cc1ccccc1)[C@@H](O)CN(Cc1ccc(-c2ccccn2)cc1)NC(=O)[C@@H](NC(=O)OC)C(C)(C)C)C(C)(C)C [atazanavir], the “inhibition … in the cell-based screen” value [1, 3] was “none of these showed inhibition”.

With OCC(CO)N[C@H]1C[C@](O)(CO)[C@@H](O)[C@H](O)[C@H]1O [voglibose] the “block … (α-glucosidase inhibitors)” value ([1]; Vero E6) was “none was able to efficiently block the viral infection”.

With CCC[C@H](NC(=O)[C@@H]1[C@H]2CCC[C@H]2CN1C(=O)[C@@H](NC(=O)[C@@H](NC(=O)c1cnccn1)C1CCCCC1)C(C)(C)C)C(=O)C(=O)NC1CC1 [Telaprevir] the “inhibition … in the cell-based screen” value [1, 3] was “none of these showed inhibition”.

In the case of CC(C)(C)NC(=O)N[C@H](C(=O)N1C[C@H]2[C@@H]([C@H]1C(=O)NC(CC1CCC1)C(=O)C(N)=O)C2(C)C)C(C)(C)C (stereo partly shown) [Boceprevir 2, Boceprevir], the “Inhibition % at 100 uM of compounds, Papain-like protease (nsp3)” value [2] is reported as “N.I”, the IC50 (SARS-CoV-2; [4]) is reported as 50.1 µM and the IC50 (SARS-CoV-2; [5]) is reported as greater than 50 µM. The minimal effective concentration [1, 6] was 10 µM and the minimal effective concentration ([1]; Severe acute respiratory syndrome coronavirus 2, Vero C1008, minimal dose that showed antiinfective effect after virus challenge, incubation 120 h (D5), Vero E6, N.I. = no inhibition, dash = cytotoxicity was observed, read-out: CPE (μM) D5) was 10 µM.

For Nc1ccn([C@H]2CC[C@@H](CO)O2)c(=O)n1 [zalcitabine], the “inhibition … in the cell-based screen” value [1, 3] was “no active compound was identified”.

In the case of CC(C)(C)NC(=O)[C@@H]1CN(Cc2cccnc2)CCN1C[C@@H](O)C[C@@H](Cc1ccccc1)C(=O)N[C@H]1c2ccccc2C[C@H]1O [indinavir sulfate], the “inhibition … in the cell-based screen” value [1, 3] is reported as “none of these showed inhibition”.

With Nc1nc2c(ncn2COCCO)c(=O)[nH]1 [acyclovir] the “inhibition … in the cell-based screen” value [1, 3] was “no active compound was identified”.

With CC(C)Nc1cccnc1N1CCN(C(=O)c2cc3cc(NS(C)(=O)=O)ccc3[nH]2)CC1 [delavirdine] the “inhibition … in the cell-based screen” value [1, 3] was “no active compound was identified”.

With CC(=O)N[C@@H](C)C(=O)N[C@H](C(=O)N[C@@H](Cc1ccccc1)[C@@H](O)[C@H](O)[C@H](Cc1ccccc1)NC(=O)[C@@H](NC(=O)[C@H](C)NC(C)=O)C(C)C)C(C)C [JJS-0309] the “inhibition … in the cell-based screen” value [1] was “did not show any inhibition”.

For Cc1ccnc2c1NC(=O)c1cccnc1N2C1CC1 [nevirapine], the “inhibition … in the cell-based screen” value [1, 3] was “no active compound was identified”.

With Nc1ccn(C[C@@H](CO)OCP(=O)(O)O)c(=O)n1 [cidofovir] the “inhibition … in the cell-based screen” value [1, 3] was “no active compound was identified”.

With NC(=O)c1ncn([C@@H]2O[C@H](CO)[C@@H](O)[C@H]2O)n1 [ribavirin] the “inhibition … in the cell-based screen” value [1, 3] was “no active compound was identified”.

Compound CC[C@H]1CN2CCc3cc(OC)c(OC)cc3[C@@H]2C[C@@H]1C[C@H]1NCCc2cc(OC)c(OC)cc21 [Emetine 5, Emetine] has an IC50 (SARS-CoV-2; [4]) of 0.0004 µM, an IC50 (SARS-CoV-2; [5]) of 0.000397 µM and a CC50 (in vitro; Vero E6 cells) greater than 10 µM. The minimal effective concentration ([1]; Severe acute respiratory syndrome coronavirus 2, Vero C1008, 72 h, read-out: CPE (μM) D3) was 5 µM and the minimal effective concentration ([1]; Severe acute respiratory syndrome coronavirus 2, Vero C1008, 120 h, […], N.I. = no inhibition, dash = cytotoxicity was observed, read-out: CPE (μM) D5) was 10 µM.

For OCCN1C[C@H](O)[C@@H](O)[C@H](O)[C@H]1CO [miglitol], the “block … (α-glucosidase inhibitors)” value ([1]; Vero E6) was “none was able to efficiently block the viral infection”.

With CC(C)c1nc(CN(C)C(=O)N[C@H](C(=O)N[C@@H](Cc2ccccc2)C[C@H](O)[C@H](Cc2ccccc2)NC(=O)OCc2cncs2)C(C)C)cs1 [Ritonavir] the “inhibition … in the cell-based screen” value [1, 3] was “none of these showed inhibition”.

With COC(=O)N[C@H](C(=O)N1CCC[C@H]1c1nc(-c2ccc(-c3ccc(-c4c[nH]c([C@@H]5CCCN5C(=O)[C@@H](NC(=O)OC)C(C)C)n4)cc3)cc2)c[nH]1)C(C)C [daclatasvir] the “inhibition … in the cell-based screen” value [1, 3] was “none of these showed inhibition”.

In the case of C=C1[C@H](CO)[C@@H](O)C[C@@H]1n1cnc2c(=O)[nH]c(N)nc21 [entecavir], the “inhibition … in the cell-based screen” value [1, 3] is reported as “no active compound was identified”.

In the case of C[C@H]1O[C@H](O[C@H]2[C@H](O)[C@@H](O)[C@@H](O[C@H]3[C@H](O)[C@@H](O)C(O)O[C@@H]3CO)O[C@@H]2CO)[C@H](O)[C@@H](O)[C@@H]1N[C@H]1C=C(CO)[C@@H](O)[C@H](O)[C@H]1O (stereo partly shown) [acarbose], the “block … (α-glucosidase inhibitors)” value ([1]; Vero E6) is reported as “none was able to efficiently block the viral infection”.

With CC(C)CN(C[C@@H](O)[C@H](Cc1ccccc1)NC(=O)O[C@H]1CO[C@H]2OCC[C@H]21)S(=O)(=O)c1ccc(N)cc1 [darunavir] the “inhibition … in the cell-based screen” value [1, 3] was “none of these showed inhibition”.

In the case of Nc1nc2c(ncn2CCC(CO)CO)c(=O)[nH]1 [penciclovir], the “inhibition … in the cell-based screen” value [1, 3] is reported as “no active compound was identified”.

For Cc1cccc(C)c1OCC(=O)N[C@@H](Cc1ccccc1)[C@@H](O)C[C@H](Cc1ccccc1)NC(=O)[C@H](C(C)C)N1CCCNC1=O [Lopinavir], the “inhibition … in the cell-based screen” value [1, 3] was “none of these showed inhibition”.

Source: publication PMC7865145, “Identification of existing pharmaceuticals and herbal medicines as inhibitors of SARS-CoV-2 infection” (Proceedings of the National Academy of Sciences of the …, 2021)
